Results as given in patent US20260200982A1, “HER RECEPTOR DERIVED PEPTIDES AND METHODS OF USE THEREOF” (Ramot at Tel-Aviv University Ltd., priority 2022, published 2026).
The star is where a group is joined. Myristoyl = CCCCCCCCCCCCCC(=O)*

Legend:
[1] = tested on: H-Ras-transformed Rat-1 cells (EJ cells); format: cell-based; settings: FIG. 4C
From the text: Cell lines—Human breast cancer cell lines SKBR3 [Peles E et al. EMBO J. (1993) 12(3):961-71] and MCF7 [Faigenbloom L et al., Mol Syst Biol. (2015) 11(12):845] and human glioblastoma U87 [Goldberg L et al. Cancer Res. (2006) 66(24):11709-17] cell line, as well as Rat-1 fibroblast cells and H-Ras-transformed Rat-1 cells (EJ cells) [Marom M et al. J Biol Chem. (1995) 270(38):22263-70] and human Panc-1 and MIA PaCa-2 pancreatic cell lines (Rak R et al. Oncoscience. 2014 1(1):39-48; Weisz B et al. Oncogene (1999) 18, 2579±2588) were all grown in Dulbecco's modified Eagle's medium (DMEM; Biological Industries, Beithaemek, Israel). Human colorectal cancer cell lines DLD-1 (ATTC Cat No. CCL-221), HCT-116 (ATTC Cat No. CCL-247) and LNCaP prostate cancer cells were grown in Roswell Park Memorial Institute 1640 (RPMI 1640) medium and McCoy's 5A media, respectively (Sigma-Aldrich). All media were supplemented with antibiotics and 10% heat-inactivated fetal bovine serum (FBS; Gibco). Human breast cell line MCF10A [Bott A et al. Oncotarget. […]
Methylene blue viability assay—Cells were plated in 96-wells plates at cell densities of 1.5×10^3 (EJ, DLD-1), 3×10^3 (Rat-1, HCT-116, U87), 5×10^3 (SKBR3, MCF7) and 6×10^3 (MCF10A) cells/well. […] IC-50 values were calculated using a non-linear regression model (logarithmic inhibitor vs. normalized response-variable slope) with the GraphPad Prism 6 software.

[2] = tested on: ErbB2; test: Western blot analysis of dissected Panc-1 tumors, ErbB2; format: in vivo, human; settings: Panc-1 tumor lysates; FIGS. 10A-C
Experimental: (§1) Pancreatic Tumor Growth in Nude Mice—The study was conducted according to the NIH Guidelines for Use and Care of Laboratory Animals and following the approval by Animal Care Committee of the Tel Aviv University. Nude CD1-Nu mice (25-30 g) housed in barrier facilities on a 12-h light/dark cycle one week prior to the injection of tumor cells (day zero). On day zero, 2×10^6 Panc 1 cells in 0.1 ml of PBS were implanted subcutaneously just above the right femoral joint. Tumor size was measured every 3-4 days. When the tumors were apparently seen and the calculated tumor size was 40 mm^3, the animals were divided randomly into two groups of mice (control vehicle treated and myr-NLS (SEQ ID NO: 5) treated; 8 mice per group). Treatment with the myr-NLS (SEQ ID NO: 5) was performed by intraperitoneal injection of 25 μg in 100 μl PBS (or 100 μl PBS for control mice) every day. Tumors size was measured 3 times a week. At the end of the experiment, the mice were sacrificed, and the tumors were dissected and used for further analysis.
(§2) Western blot analysis—Half of each tumor was homogenized in lysis buffer, using a Potter-Elvehjem manual homogenizer, cleared and kept at −70° C. […] Immunoreactive bands were detected with the enhanced chemiluminescence reagent (Luminata Crescendo Western HRP). Densitometric quantification analysis of the resulted images was done using ImageJ program. […]

[3] = tested on: Akt; test: Western blot analysis of dissected Panc-1 tumors, Akt; format: in vivo, human; settings: Panc-1 tumor lysates; FIGS. 10A-C
Experimental: as §1, §2

[4] = tested on: DLD-1 colon cancer cells; format: cell-based, human; settings: DLD-1; 72 hours; FIGS. 4B and 4C; read-out: IC50 (cell viability)
From the text: (§3) Cell lines—Human breast cancer cell lines SKBR3 [Peles E et al. EMBO J. (1993) 12(3):961-71] and MCF7 [Faigenbloom L et al., Mol Syst Biol. (2015) 11(12):845] and human glioblastoma U87 [Goldberg L et al. Cancer Res. (2006) 66(24):11709-17] cell line, as well as Rat-1 fibroblast cells and H-Ras-transformed Rat-1 cells (EJ cells) [Marom M et al. J Biol Chem. (1995) 270(38):22263-70] and human Panc-1 and MIA PaCa-2 pancreatic cell lines (Rak R et al. Oncoscience. 2014 1(1):39-48; Weisz B et al. Oncogene (1999) 18, 2579±2588) were all grown in Dulbecco's modified Eagle's medium (DMEM; Biological Industries, Beithaemek, Israel). Human colorectal cancer cell lines DLD-1 (ATTC Cat No. CCL-221), HCT-116 (ATTC Cat No. CCL-247) and LNCaP prostate cancer cells were grown in Roswell Park Memorial Institute 1640 (RPMI 1640) medium and McCoy's 5A media, respectively (Sigma-Aldrich). All media were supplemented with antibiotics and 10% heat-inactivated fetal bovine serum (FBS; Gibco). Human breast cell line MCF10A [Bott A et al. Oncotarget. (2017) 8(27):43897-43914] was grown in Dulbeco's Modified Eagle's Medium/Nutrient Mixture F-12 HAM medium (DMEM F-12 HAM; Sigma-Aldrich), supplemented with antibiotics, 5% inactivated horse serum (HS; Invitrogen), 2 mM L-glutamine (Biological Industries, Beithaemek, Israel), 0.1 μg/ml cholera toxin (Sigma-Aldrich), 0.5 μg/ml hydrocortisone (Sigma-Aldrich), 10 μg/ml insulin (Biological Industries, Beithaemek, Israel) and 2 ng/ml EGF (R&D Systems). Cells were incubated at 37° C. in 5% CO2 in air, and the medium was changed every 3-4 days. Cells were passaged in trypsin/disodium ethylenediaminetetraacetic acid (Biological Industries, Beithaemek, Israel) when confluency reached 70%. One day prior to treatment the cells were plated at ~50% confluency in a medium supplemented with 10% FBS or 5% HS, accordingly.
(§4) Methylene blue viability assay—Cells were plated in 96-wells plates at cell densities of 1.5×10^3 (EJ, DLD-1), 3×10^3 (Rat-1, HCT-116, U87), 5×10^3 (SKBR3, MCF7) and 6×10^3 (MCF10A) cells/well. On the following day, cells were treated as indicated, and grown for 72 hours. Cell number determination was performed as described previously. IC-50 values were calculated using a non-linear regression model (logarithmic inhibitor vs. normalized response-variable slope) with the GraphPad Prism 6 software.

[5] = tested on: Panc-1 pancreatic cancer cells; format: cell-based, human; settings: Panc 1; 72 hours; FIGS. 4B and 4C; read-out: IC50 (cell viability)
From the text: as §3, §4

[6] = tested on: HCT-116 colon cancer cells; format: cell-based, human; settings: HCT116; 72 hours; FIGS. 4B and 4C; read-out: IC50 (cell viability)
From the text: as §3, §4

[7] = tested on: U87 glioma cells; format: cell-based, human; settings: U87; 72 hours; FIGS. 4B and 4C; read-out: IC50 (cell viability)
From the text: as §3, §4

## Myr-RRRHIVRKRTLRRLL-OH (Myristoyl-RRRHIVRKRTLRRLL-OH; SMILES CCCCCCCCCCCCCC(=O)N[C@@H](CCCNC(=N)N)C(=O)N[C@@H](CCCNC(=N)N)C(=O)N[C@@H](CCCNC(=N)N)C(=O)N[C@@H](Cc1c[nH]cn1)C(=O)N[C@H](C(=O)N[C@H](C(=O)N[C@@H](CCCNC(=N)N)C(=O)N[C@@H](CCCCN)C(=O)N[C@@H](CCCNC(=N)N)C(=O)N[C@H](C(=O)N[C@@H](CC(C)C)C(=O)N[C@@H](CCCNC(=N)N)C(=O)N[C@@H](CCCNC(=N)N)C(=O)N[C@@H](CC(C)C)C(=O)N[C@@H](CC(C)C)C(=O)O)[C@@H](C)O)C(C)C)[C@@H](C)CC) [myr-NLS]
[1]
  viability of Rat-1 fibroblast cells transformed with constitutive Ras (EJ): decreased viability
[2]
  levels of total ErbB2 in tumors: reduced
  phosphorylated ErbB2 expression in tumors: reduced
[3]
  Akt levels in tumors: significant reduction
[4]
  IC50: 34.2 µM
[5]
  IC50: 8.1 µM
[6]
  IC50: 12.8 µM
[7]
  IC50: 32.2 µM
